Values of other authors, collected in patent publication US8097602B1, “Method of treating body insect infestation” (Host Pharmaceuticals, LLC, priority 2008, dated 2012).

Settings: at 20° C.

## n-alkanes
  Surface Tension (dynes/cm): 37.8^1 dynes/cm

## n-fluoroalkanes
  Surface Tension (dynes/cm): 25.9^1 dynes/cm
